From US20190078052A1, “ENGINEERED ADHESIVE SUBSTRATES FOR HIGH-THROUGHPUT CELL ISOLATION AND SEPARATION” (ARIZONA BOARD OF REGENTS ON BEHALF OF ARIZONA STATE …, priority 2016, published 2019)
“Also recorded” adds a separate entry of the source.

What was measured:
cdc42 = cdc42 (Homo sapiens, UniProt P60953); settings: other cancer cell lines; cited from earlier work
T24 3D-DTMs [1] = test: Viability of T24 3D-DTMs after docetaxel treatment; type: cell-based; settings: following treatment
T24 3D-DTMs [2] = test: Cell cycle analysis of T24 3D-DTMs by propidium iodide flow cytometry; type: cell-based
Procedure: Following five days of incubation on AM3, 3DTMs of T24 cells with NIH3T3 murine fibroblast cells were harvested for cell cycle analysis. Four or five individual 3DTMs of T24 cells alone or UMUC3 cells alone were harvested on the 7th day after seeding on Amikagels, collected in an eppendorf tube. 50 μL of 5 mg/ml collagenase was added to 3DTMs prepared using fibroblast helper cells for 30 minutes at 37° C. in order to facilitate their disassembly by gentle pipetting. Single cell 3DTMs were disassembled using manual pipetting.
Disassembled 3DTM cells were then centrifuged at 200 r.c.f. in order to collect the cell pellet. The pellet was resuspended in a solution of 1% v/v 1× Triton-X, 5% (v/v) fetal bovine serum (FBS), 50 μg/mL propidium iodide, and 0.006-0.01 units/mL ribonuclease A. After incubation for 30 minutes on ice, cells were analyzed for their cell cycle profiles using flow cytometry; the propidium iodide (PI) signal was detected using an excitation at 535 nm and emission at 617 nm.
Voltages of the FL2-A, SSC and FSC channels were adjusted in order to obtain best representative peaks for alignment of 2n (diploidy−G0/G1) peak to 200 intensity units during flow cytometry. FL2A (FL2-Area) provides the information regarding the pulse area of the emitted fluorescence signal (total cell fluorescence) whereas SSC and FSC provide the information regarding the […] light from the sample. FSC is a measure of diffracted light from the sample proportional to cell surface area or size and SSC is proportional to cell granularity or internal complexity.

phospho-AKT = settings: cited from earlier work
phospho-FAK = settings: cited from earlier work
T24 3D-DTMs [3] = test: Transfer of dormant T24 3D-DTMs from AM3 to AM1 Amikagel: cell escape, filopodia, microcolony formation; type: cell-based; settings: for formation of micrometastasis-like nodules / microcolonies: 100 μM pre-treated, 15 days after transfer to AM1
Procedure: 1 ml of amikagel AM1, AM2 and AM3 pre-gel solutions were filtered through a 0.20 μm filter and 40 μL of the filtrate was added to each well of a 96 well plate. The plates were sealed with paraffin tape (Parafilm, Menasha, Wis.) and incubated in an oven maintained at 40° C. for 7.5 hours. After gelation, the surfaces of Amikagels were washed with 150 μL of Nanopure® water for 12 hours, in order to remove traces of unreacted monomers.
All 3DTM (3D tumor microenvironments) experiments were set up by liquid overlay culture (2) of cells on top of Amikagel surface in a total volume of […] media/well; either 100,000 cancer cells alone (single culture) or 50,000 stromal cells followed by 50,000 cancer cells (co-culture) were incubated, unless indicated otherwise in specific cases. After 48 hours of incubation, 50% of the media in the wells was replaced with fresh media i.e. DMEM/RPMI+10% (v/v) FBS+1% (v/v) Pen-Strep at regular intervals of 48 hours. Care was taken to withdraw and add the media slowly so as to not perturb 3DTM formation. Fresh media was added every 48 hours following cell plating. For 3DTM generation on 24 well plates, 400 μL of pre-gel volume was used instead of 40 μl. Different co-culture 3DTM systems are represented as fibroblast/stromal cells-epithelial cells (e.g. NIH3T3-T24, WPMY-1-T24) to accurately indicate the sequence of their addition. In most cases, 3DTMs were formed 5-7 days following culture on Amikagels.
T24 3DTMs were first formed on AM3, and transferred to AM1s on the seventh day following initial cell seeding, in order to investigate the role of chemo-mechanical properties of Amikagels on 3DTM fate, and migration of metastatic cells out of the 3DTM spheroid. Upon transfer, cells from 3DTMs were monitored for cell spreading and motility on the gel for an additional 7 days. After 7 days, cell cycle analysis and N-cadherin analysis was carried out on the all 3DTMs. Long-term experiments were also carried out where 3D-DTMs were continuously monitored for 15 days after their transfer from AM3 gel to AM1 gel.

cdc42, sequence (P60953 whole entry, species assumed): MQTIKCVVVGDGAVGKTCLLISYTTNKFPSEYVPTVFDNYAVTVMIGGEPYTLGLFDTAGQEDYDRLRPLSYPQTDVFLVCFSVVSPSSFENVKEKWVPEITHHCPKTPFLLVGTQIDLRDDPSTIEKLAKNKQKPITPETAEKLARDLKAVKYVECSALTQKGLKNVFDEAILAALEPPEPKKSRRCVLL

CC(=O)O[C@@]12CO[C@@H]1C[C@H](O)[C@@]1(C)C(=O)[C@H](O)C3=C(C)[C@@H](OC(=O)[C@H](O)[C@@H](NC(=O)OC(C)(C)C)c4ccccc4)C[C@@](O)([C@@H](OC(=O)c4ccccc4)[C@H]21)C3(C)C [Docetaxel, docetaxel]
inhibition of cdc42 (cdc42): effectively inhibit
viability of treated T24 3D-DTMs (T24 3D-DTMs [1]): remained viable
cells in the G2/M phase, treated vs untreated 3D-DTM (T24 3D-DTMs [2]; 96 hours on AM3): No significant differences
cells in the sub-G0/G1 phase of the cell cycle, treated mother 3D-DTM (T24 3D-DTMs [2]; 96 hours on AM3): modest increase
cell cycle profile of treated T24 3D-DTMs (T24 3D-DTMs [2]; following treatment): dormant cell cycle profile
reduction of phospho-AKT expression compared to untreated T24 cells (phospho-AKT): ~41%
reduction of phospho-FAK expression compared to untreated T24 cells (phospho-FAK): ~34%
cellular escape from the mother 3D-DTM (T24 3D-DTMs [3]; 12.5 μM-100 μM): significantly reduced
formation of micrometastasis-like nodules / microcolonies (T24 3D-DTMs [3]): significantly reduced cell escape and microcolony formation
formation of micrometastasis-like nodules / microcolonies (T24 3D-DTMs [3]; listed as docetaxel): drastically reduced
cells escaping the mother spheroid (T24 3D-DTMs [3]; 100 μM pre-treatment on AM3, 48 hours after transfer to AM1): significantly lesser number of cells escaped
filopodia formation on cells shed on AM1 (T24 3D-DTMs [3]; after treatment of T24 3D-DTMs): did not show filopodia formation; also recorded: not observed
